# Laboratory results as given in patent publication US20040043420A1, “Method of identifying conformation-sensitive binding peptides and uses thereof” (priority 2003, published 2004).
# T1: androgen receptor (Homo sapiens, UniProt P10275)
# T1 sequence (P10275 1-920): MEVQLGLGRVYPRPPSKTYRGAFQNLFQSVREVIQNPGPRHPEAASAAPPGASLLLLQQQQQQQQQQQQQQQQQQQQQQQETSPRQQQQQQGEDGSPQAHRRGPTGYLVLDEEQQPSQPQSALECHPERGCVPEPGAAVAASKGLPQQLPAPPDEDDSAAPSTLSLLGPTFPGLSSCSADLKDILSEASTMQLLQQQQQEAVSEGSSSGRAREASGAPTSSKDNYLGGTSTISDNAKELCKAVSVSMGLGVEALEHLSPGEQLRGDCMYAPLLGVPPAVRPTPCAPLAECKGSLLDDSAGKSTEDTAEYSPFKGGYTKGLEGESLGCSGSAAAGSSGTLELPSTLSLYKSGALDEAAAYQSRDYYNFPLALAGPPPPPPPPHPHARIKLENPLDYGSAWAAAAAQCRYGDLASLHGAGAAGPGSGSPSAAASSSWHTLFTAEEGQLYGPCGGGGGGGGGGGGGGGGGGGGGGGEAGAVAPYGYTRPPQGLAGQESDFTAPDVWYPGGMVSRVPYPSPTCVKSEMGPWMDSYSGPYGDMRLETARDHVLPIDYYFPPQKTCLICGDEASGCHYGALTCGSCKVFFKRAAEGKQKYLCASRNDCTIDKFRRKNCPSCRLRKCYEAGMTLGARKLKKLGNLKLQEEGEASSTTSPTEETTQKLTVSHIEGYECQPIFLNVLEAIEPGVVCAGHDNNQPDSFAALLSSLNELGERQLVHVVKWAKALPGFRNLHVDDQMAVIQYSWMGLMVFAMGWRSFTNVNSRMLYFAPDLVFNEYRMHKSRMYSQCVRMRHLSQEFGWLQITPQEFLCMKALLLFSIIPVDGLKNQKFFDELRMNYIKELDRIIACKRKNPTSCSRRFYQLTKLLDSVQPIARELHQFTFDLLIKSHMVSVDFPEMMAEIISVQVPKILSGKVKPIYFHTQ
# T2: ER β, Q92731
# T2 chain: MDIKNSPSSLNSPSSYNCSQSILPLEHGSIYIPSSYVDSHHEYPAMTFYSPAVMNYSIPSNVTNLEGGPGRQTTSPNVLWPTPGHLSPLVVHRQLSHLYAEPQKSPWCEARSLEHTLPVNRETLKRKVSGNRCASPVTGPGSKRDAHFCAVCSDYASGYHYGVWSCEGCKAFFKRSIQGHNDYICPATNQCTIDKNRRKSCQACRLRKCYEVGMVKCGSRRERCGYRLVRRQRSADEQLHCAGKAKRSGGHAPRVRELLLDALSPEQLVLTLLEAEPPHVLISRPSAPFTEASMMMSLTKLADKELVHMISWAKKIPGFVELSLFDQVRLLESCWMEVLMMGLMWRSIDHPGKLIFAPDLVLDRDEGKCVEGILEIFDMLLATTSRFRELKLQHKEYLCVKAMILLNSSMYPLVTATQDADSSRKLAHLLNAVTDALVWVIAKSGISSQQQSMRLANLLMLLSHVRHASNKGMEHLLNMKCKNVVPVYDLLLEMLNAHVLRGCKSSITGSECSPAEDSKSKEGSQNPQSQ
# What was measured:
# androgen receptor [1] = target: T1, androgen receptor; format: cell-based; design: expressed in transfected cells
# androgen receptor [2] = target: T1, androgen receptor; format: cell-based; design: expressed in transfected cells; remark: listed apart in the source
# Source text: We used a mammalian two-hybrid system to determine specificities of the AR-binding peptides previously identified, through screening of the aforementioned yeast library, as ligand-dependent in their binding activity. Ligand was provided to the cells so the interaction could be observed. The human hepatoma cell line, Huh-7, was used as the recipient of two-hybrid vectors, pM and pVP16 (Clontech) (FIGS. 6A and 6B), containing fusions with peptide and AR, respectively. According to Clontech literature, the Clontech vectors pM and VP16 generate fusions of protein X with the GAL4 DNA-BD and fusions of protein Y with the VP16AD, in the Mammalian MM Two-Hybrid Assay Kit (#K1602-1). (Note: pM and VP16 contain unique cloning sites in the same order and reading frame as the DNA-BD and AD, respectively, vectors in the yeast […] Two-Hybrid Systems.) A third vector, pG5CAT, provides a CAT reporter gene under the control of a GAL4-responsive element and minimal promoter of the adenovirus E1b. The three vectors are cotransfected into any suitable mammalian host cell line by standard methods. The interaction between proteins X and Y is then assayed by measuring CAT gene expression by any standard method. In the absence-of activation (i.e., no protein-protein interaction), the minimal E1b promoter will not express significant levels of CAT.
# Briefly, cells are seeded in a 24-well culture plate to a density of 50-80% confluence in phenol red-free media containing charcoal-dextran stripped fetal bovine serum (10%). Following incubation overnight, cells are transfected with plasmids pM-peptide, pVP16-AR, pCMV-b-gal, and p5XGAL-Luc3 DNAs using lipofectamine 2000 (LifeTech) according to the manufacturer's protocol. Transfections are allowed to proceed for 6 hours and the transfection media is aspirated and replaced with recovery media for 18 hours. Following the recovery period, cells are treated with compound for 24 hours prior to cell harvesting. Cells are washed with PBS and then lysed using the lysis buffer from the Galacto-Light Plus β-galactosidase assay kit (Tropix). Assays for luciferase and β-galactosidase were performed as described by the manufacturer. Peptide/AR interactions are described in terms of the luciferase activity normalized for transfection efficiency using β-galactosidase activity (see FIG. 4A). Two types of useful information arose from these methods: 1) we generated a panel of useful peptide probes to analyze the conformational state of AR, and 2) we “fingerprinted” AR modulators with respect to AR conformation (FIG. 4B). […] FIG. 4B is the converse of 4A. It compares the ability of six ligands (DHT, MPA, CYP, RU486, FLUT and DHEAs to interact with AR in the presence of each of four peptides (D30, 5G11, B8H3 and […]). Thus, it is a “fingerprint” of each of the six ligands using a four peptide panel. (Note that “1269” and D30″ refer to the same peptide.)
# androgen receptor [3] = target: T1, androgen receptor; test: Yeast two-hybrid screening of unbiased X15 peptide library, ligand-induced β-galactosidase activity (FIG. 3, Table 503); format: cell-based; design: expressed in transfected cells; host or cells: Saccharomyces cerevisiae PJ69-4α
# Source text: Our library contained predominantly 15 random amino acid residues/peptide in order to identify motifs that might interact with nuclear receptor domains. If ligand is provided to the cells, one can screen for peptides that interact with the ligand-bound receptor. […] Included at the ends of the oligonucleotide were the synthetic restriction endonuclease cleavage sites, EcoRI or Mfe I (5′ end) and Sal I (3′ end). Oligonucleotides were annealed, then cleaved with excess restriction endonuclease and purified on agarose gels. The purified set of oligonucleotides was subcloned as an in-frame carboxy-terminal fusion to a Gal4 DNA binding domain (plasmid vector pMA424 derivative). […] The transformation mix was divided and grown on plates of selective media containing ligand and 25 mM 3-aminotriazole at 30° C. until colonies appeared in 3-7 days. […] Dihydrotestosterone (DHT) and medroxyprogesterone (MPA) were added to the media at 100 nM to identify peptides that interact with the receptor in the presence of ligand. After colonies appeared they were picked and dispersed into individual wells of a 96-well plate containing rich media (YPD).
# To determine ligand dependence, two microliter aliquots were removed from the cell suspension, and arrayed and spotted onto each of two rectangular agar plates, one with 100 nM ligand and one without ligand. Growth was monitored daily.
# A secondary test of ligand dependent activation was performed using the integrated GAL4-driven lacZ gene. Cell suspensions of the initial positive clones were diluted 20-fold into 20 microliters of rich media in a microplate and grown overnight at 30° C. in the presence and absence of ligand. Microplates were centrifuged for 5 minutes at 3000 rpm in a swinging table top centrifuge to pellet the yeast cells, and the overlying media was aspirated. […] An OD650 density determination was made to normalize the β-galactosidase activity. β-galactosidase activity was monitored following the addition of buffer containing chlorophenol red-1-galactopyranoside (CPRG) (Boehringer Mannheim) substrate at a final concentration of 0.5 mM. […] The maximum slope value of this measurement was normalized to cell density from the initial OD650 value, and the relative ligand dependence of β-galactosidase was determined by comparing the values plus and minus ligand.
# In FIG. 3, all of these ligands were tested. The plasmids from true positives were extracted using standard yeast extraction protocols and re-transformed to verify the positive phenotype.
# ER β, Q92731 = target: T2, ER β, Q92731; test: peptide probe binding to ERβ, all modulators
"Binding to the androgen receptor in the presence of agonists and known antagonists (androgen receptor [1]; ligand present (agonists, known antagonists))",Binding to the androgen receptor in the absence of ligand (androgen receptor [1]; no ligand),Mammalian Cell Specificity Graph (FIG. 4): CYP. (androgen receptor [2]),Mammalian Cell Specificity Graph (FIG. 4): DHT (androgen receptor [2]; ligand DHT),Mammalian Cell Specificity Graph (FIG. 4): MPA (androgen receptor [2]; ligand MPA),Mammalian Cell Specificity Graph (FIG. 4): RU486 (androgen receptor [2]; ligand RU486),Mammalian Cell Specificity Graph (FIG. 4): no compound (androgen receptor [2]; no compound),Fold induction (androgen receptor [3]),Yeast Specificity Graph (FIG. 3): CPA (androgen receptor [3]; ligand CPA),Yeast Specificity Graph (FIG. 3): DHT (androgen receptor [3]; ligand DHT),Yeast Specificity Graph (FIG. 3): RU (androgen receptor [3]; ligand RU),Yeast Specificity Graph (FIG. 3): No Lig (androgen receptor [3]; no ligand),"Equiv. (ER β, Q92731)",Molecule
displays binding,not in the absence of ligand,16.02 Relative Light Units,19.64 Relative Light Units,18.51 Relative Light Units,10.1916 Relative Light Units,0.2091 Relative Light Units,4,0.5635,1.75,0.8,0.4989,–,EFQQCMCAEVKSWLGGSLDLOPS* [B8E9]
–,–,–,–,–,–,–,–,–,–,–,–,0%,SAPRATISHYLMGG (modifications not checked) [α/β II]
